Data on two compounds can be found in patent US20250375440A1, “COMPOSITION AND METHOD OF TREATING CANCER ASSOCIATED WITH EGFR MUTATION” (BEYONDSPRING PHARMACEUTICALS, INC., priority 2018, published 2025).

The experiment concerns NCI-H1975 Human Lung Cancer Xenograft. The experiment is described as follows: subcutaneous NCI-H1975 Human Lung Cancer Xenograft Model in Balb/c Nude Mice, tumor size. The format is in vivo, Mus Musculus (Balb/c nude mice). As to conditions: single agent. Here is the method:
The therapeutic efficacy of Osimertinib and Plinabulin were tested in vivo. The two drugs were tested as a single agent and in combination in the treatment of subcutaneous NCI-H1975 Human Lung Cancer Xenograft Model in Balb/c Nude Mice. The administration of the test articles and the animal numbers in each study group were shown in the following experimental design table 1. [table] Study endpoints: The major endpoints of the study include the followings: Tumor growth inhibition (TGI): TGI % was an indication of antitumor effectiveness, and expressed as: TGI (%)=100×(1-T/C). T and C were the mean tumor volume (or weight) of the treated and control groups, respectively, on a given day. The test uses 6-8 weeks female mice (species: Mus Musculus, Strain: Balb/c nude). The average body weight of the mice was 18-22 g. A total of 84 mice (60 plus 40% spare) were used. The animals were housed in individual ventilated cages (up to 5 mice per cage) under the following conditions: Temperature: 20˜26° C.; Humidity: 40-70%; Light cycle: 7:00 am-19:00 pm light and 19:00 pm-7:00 am (next day) darkness; Polysulfone IVC cage: size of 325 mm×210 mm×180 mm; Bedding material: corn cob; Diet: Mouse diet, Co60 irradiation sterilized dry granule food. Animals have free access during the entire study period; Water: Reverse osmosis (RO) water, autoclaved before using. […] The cells growing in an exponential growth phase were harvested and counted for tumor inoculation. […] Group assignment: Before grouping and treatment, all animals were weighed and the tumor volumes were measured using a caliper. […] During routine monitoring, the animals were checked for any effects of tumor growth and treatments on normal behavior such as mobility, visual estimation of food and water consumption, body weight gain/loss (body weights were measured twice per week), eye/hair matting and any other abnormal effect. […]
(In general: In xenograft studies the graft and the host belong to different species.)

As for `C=CC(=O)Nc1cc(Nc2nccc(-c3cn(C)c4ccccc34)n2)c(OC)cc1N(C)CCN(C)C` [osimertinib, reference compound], under “Group 2, osimertinib 2.5 mg/kg p.o. QD x 5/wk”, the “tumor size change after tumor inoculation” value (“tumor size change” below) is “control over the tumor size and slight increase in tumor size after the animals were tested for 15 days”.

Turning to `CC(C)(C)c1[nH]cnc1/C=c1\[nH]c(=O)/c(=C/c2ccccc2)[nH]c1=O` [plinabulin, (3Z,6Z)-3-Benzylidene-6-{[5-(2-methyl-2-propanyl)-1H-imidazol-4-yl]methylene}-2,5-piperazinedione], the “tumor size change” value (Group 3, plinabulin 7.5 mg/kg i.p. BIW 2 wks) is on record as “tumor size increases” and the “tumor size change” value (Group 4, plinabulin 2.5 mg/kg i.p. BIW 2 wks) was “tumor size increases”.
